For test [1], the system named is bovine alkaline phosphatase. The experiment in a line: Incubation of H1b-ADP with bovine alkaline phosphatase. It is filed as biochemical. The source says: (§1) FBS contains 110-352 U/ml alkaline phosphatase.
In test [2] the test system is phosphatase activity in the serum. The experiment in a line: Incubation of H1b-ADP with FBS, product analysed by LC-MS. The test is classed as in vitro ADME, bovine. The settings on record: 1 mM, pre-mixed with H1b-ADP before incubation with FBS.
Text: as §1

Another test deals with ALPK1. As to the kind of experiment: IL8 secretion in HEK293 cells (IL8 ELISA) as indicator of ALPK1 activation. To be noted: added to the FBS-containing medium, HEK293 cells, IL8 secretion. Background: In an ELISA, binding on a coated surface is turned into a signal by an enzyme label.

This note sets out measurements from patent US11186606B2, “Compositions and methods of modulating the immune response by activating alpha protein kinase 1” (Shanghai Yao Yuan Biotechnology Co., Ltd., priority 2017, dated 2021).

Experimental for ALPK1: We pre-mixed H1b-ADP with phosphatase inhibitor sodium orthovanadate (Na3VO4) before incubation with FBS.
In these experiments, serial dilutions of the compounds were added to the tissue culture media of HEK293 cells with (FIG. 27B, FIG. 28B, FIG. 29B) or without (FIG. 26, FIG. 27A, FIG. 28A, FIG. 29A) 10% FBS, as indicated in the figures. After 4 hours, the cell supernatant was collected and analyzed for IL8 concentration using IL8 ELISA (BD) as an indicator of ALPK1 activation.

Turning to `[Na+].[Na+].[Na+].[O]=[V]([O-])([O-])[O-]` [Na3VO4, sodium orthovanadate], the “phosphatase activity (H1b-ADP hydrolysis)” value in test [1] is reported as “blocked by increasing amount of Na3VO4”. For the same compound, in test [2], the H1b-ADP hydrolysis entry was “effectively inhibited H1b-ADP hydrolysis”. Moreover, the “restoration of H1b-ADP's activity in the cell based assay” value with ALPK1 is listed as “could restore H1b-ADP's activity”.
